The text below walks through data of ChEMBL document CHEMBL1150549, “Synthesis and antifungal activity of new azole derivatives containing an oxathiane ring” (1996).

SMILES strings stand for the structures. Converted amounts (≈) assume the structure as drawn.

What all share (format): functional
Experiment [1] has as its system Mus musculus. Briefly: In vivo antifungal activity against Candida albicans in mice at a dose of 10 mg/kg upon oral administration.
Another experiment concerns Aspergillus fumigatus. In words: In vitro antifungal activity against Aspergillus fumigatus MTU6001.
For another experiment, the system named is Candida albicans. Briefly: In vitro antifungal activity against Candida albicans KB-8.
In experiment [2] the test system is Mus musculus. Briefly: In vivo antifungal activity against Aspergillus fumigatus in mice at a dose of 50 mg/kg upon oral administration.
The subject of experiment [3] is Mus musculus. In words: In vivo antifungal activity against Aspergillus fumigatus in mice at a dose of 100 mg/kg upon oral administration.

One may read the MIC as the lowest concentration that inhibits growth of the organism. High values mean a less susceptible organism, low ones a more susceptible organism. On to `C[C@H]1SCCOC1(Cn1cncn1)c1ccc(F)cc1F` (single isomer, unassigned), for which the Mean survival days was 4.9 days with Mus musculus [1] and 1.5 days in the experiment on Mus musculus [2]. Besides, the MIC against Aspergillus fumigatus amounted to 50 µg/mL (≈ 161 µM); against Candida albicans it was 0.2 µg/mL (≈ 0.642 µM).
On to `C[C@@H]1SCCOC1(Cn1cncn1)c1ccc(F)cc1F` (single isomer, unassigned), for which the Mean survival days in the experiment with Mus musculus [1] came out at 2 days; in the experiment on Mus musculus [2] it was 1.9 days. The minimum inhibitory concentration (MIC) is 25 µg/mL (≈ 80.3 µM) against Aspergillus fumigatus and 0.1 µg/mL (≈ 0.321 µM) with Candida albicans.
`C[C@H]([C@](O)(Cn1cncn1)c1ccc(F)cc1F)S(C)(=O)=O` [GENACONAZOLE]: the Mean survival days in the experiment on Mus musculus [1] and in the experiment with Mus musculus [2] was 10 days each time. Further, the figures for the MIC against Aspergillus fumigatus and with Candida albicans were 25 µg/mL (≈ 75.5 µM) and 0.39 µg/mL (≈ 1.18 µM), respectively.
As to `C[C@H]1C(Cn2cncn2)(c2ccc(F)cc2F)OCCS1(=O)=O` (single isomer, unassigned), the Mean survival days in the experiment with Mus musculus [1] amounted to 1.2 days; in the experiment on Mus musculus [2], 1.8 days. For the same compound, the MIC against Aspergillus fumigatus was greater than 100 µg/mL; with Candida albicans it was 3.13 µg/mL (≈ 9.12 µM).
In the case of `CC1COC(Cn2cncn2)(c2ccc(F)cc2F)C(C)(C)S1(=O)=O` (single isomer, unassigned), the Mean survival days in the experiment with Mus musculus [1] was 10 days; in the experiment on Mus musculus [2], 9.4 days. For the same compound, the MIC with Aspergillus fumigatus is 12.5 µg/mL (≈ 33.7 µM); in the experiment on Candida albicans, 0.39 µg/mL (≈ 1.05 µM).
Turning to `C[C@@H]1C(Cn2cncn2)(c2ccc(F)cc2F)OCCS1(=O)=O` (single isomer, unassigned), the figures for the Mean survival days in the experiment with Mus musculus [1] and in the experiment on Mus musculus [2] were 6.9 days and 1.1 days, respectively. Besides, the minimum inhibitory concentration (MIC) in the experiment on Aspergillus fumigatus is greater than 100 µg/mL; in the experiment with Candida albicans it was 6.25 µg/mL (≈ 18.2 µM).
On to `CC1(C)C(Cn2cncn2)(c2ccc(F)cc2F)OCCS1(=O)=O` (single isomer, unassigned), for which the Mean survival days with Mus musculus [1] amounted to 9.4 days; with Mus musculus [2] it was 10 days. Also, the MIC with Aspergillus fumigatus was found to be 100 µg/mL (≈ 280 µM); against Candida albicans, 3.13 µg/mL (≈ 8.76 µM).
The corresponding values for `CC1(C)SCCOC1(Cn1cncn1)c1ccc(F)cc1F` (single isomer, unassigned) are 8.6 days, 9.8 days, 3.13 µg/mL (≈ 9.62 µM) and 0.1 µg/mL (≈ 0.307 µM).
Take `OC(Cn1cncn1)(Cn1cncn1)c1ccc(F)cc1F` [FLUCONAZOLE]: the Mean survival days with Mus musculus [3] was found to be 2.8 days; in the experiment with Mus musculus [1], 10 days. Also, the figures for the minimal inhibitory concentration (MIC) in the experiment with Aspergillus fumigatus and in the experiment on Candida albicans were 400 µg/mL (≈ 1310 µM) and 0.78 µg/mL (≈ 2.55 µM), respectively.
